From patent US11084800B2 (Achillion Pharmaceuticals, Inc., priority 2017, dated 2021)

Each compound was assayed against Human Factor D (Homo sapiens (Human), UniProt P00746) (assay: Human Factor D Assay). Conditions: Factor D inhibition, assay of Example 10; read-out: IC5 (Stars).
Human Factor D, sequence (P00746 26-253): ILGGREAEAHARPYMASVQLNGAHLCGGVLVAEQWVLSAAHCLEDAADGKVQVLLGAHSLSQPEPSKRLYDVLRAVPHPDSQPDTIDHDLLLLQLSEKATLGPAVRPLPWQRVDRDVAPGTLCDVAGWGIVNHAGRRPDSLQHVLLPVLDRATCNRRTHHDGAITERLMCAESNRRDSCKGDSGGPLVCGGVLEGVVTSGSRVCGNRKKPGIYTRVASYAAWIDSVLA
Type: biochemical
How it was run: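 Serum-purified Factor D (80 nM final) preincubated 5 min at room temperature with compound in 50 mM Tris, 1 M NaCl, pH 7.5. Z-L-Lys-SBz and DTNB added at 100 μM each; A405 followed every 30 s for 30 min. IC50 from nonlinear regression of rates versus concentration.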
In the case of `CC(=O)c1nn(CC(=O)N2[C@H](C(=O)Nc3nc(Br)ccc3C)C[C@@]3(CN4CC5(CC5)C4)C[C@@H]23)c2c(C)cc(-c3cnc(C)nc3)cc12` [Compound 366, (1R,3S,5R)-5-(5-azaspiro[2.3]hexan-5-ylmethyl)-2-(2-(3-acetyl-7-methyl-5-(2-methylpyrimidin-5-yl)-1H-indazol-1-yl)acetyl)-N-(6-bromo-3-methylpyridin-2-yl)-2-azabicyclo[3.1.0]hexane-3-carboxamide], the IC50 is reported as < 1000 nM. For `Cc1ncc(-c2ccc3c(c2)c(CC#N)nn3CC(=O)N2[C@H](C(=O)Nc3nc(Br)ccc3C)C[C@@]3(C)C[C@@H]23)cn1` [Compound 367, (1R,3S,5R)-N-(6-bromo-3-methylpyridin-2-yl)-2-(2-(3-(cyanomethyl)-5-(2-methylpyrimidin-5-yl)-1H-indazol-1-yl)acetyl)-5-methyl-2-azabicyclo[3.1.0]hexane-3-carboxamide], the IC50 was > 10000 nM. In the case of `Cc1ncc(-c2ccc3c(c2)c(C(C)(C)C#N)nn3CC(=O)N2[C@H](C(=O)Nc3nc(Br)ccc3C)C[C@@]3(C)C[C@@H]23)cn1` [Compound 368, (1R,3S,5R)-N-(6-bromo-3-methylpyridin-2-yl)-2-(2-(3-(2-cyanopropan-2-yl)-5-(2-methylpyrimidin-5-yl)-1H-indazol-1-yl)acetyl)-5-methyl-2-azabicyclo[3.1.0]hexane-3-carboxamide], the IC50 is reported as > 10000 nM. For `CC(=O)c1nn(CC(=O)N2[C@H](C(=O)Nc3nc(Br)ccc3C)C[C@@]3(CN4CC5(CC5)C4)C[C@@H]23)c2c(CF)cc(-c3cnc(C)nc3)cc12` [Compound 369, (1R,3S,5R)-5-(5-azaspiro[2.3]hexan-5-ylmethyl)-2-(2-(3-acetyl-7-(fluoromethyl)-5-(2-methylpyrimidin-5-yl)-1H-indazol-1-yl)acetyl)-N-(6-bromo-3-methylpyridin-2-yl)-2-azabicyclo[3.1.0]hexane-3-carboxamide], the IC50 was < 1000 nM. For `CC(=O)c1nn(CC(=O)N2[C@H](C(=O)Nc3nc(Br)ccc3C)C[C@@]3(CN4CC5(CC5)C4)C[C@@H]23)c2c(C)nc(-c3cnc(C)nc3)cc12` [Compound 370, (1R,3S,5R)-5-(5-azaspiro[2.3]hexan-5-ylmethyl)-2-(2-(3-acetyl-7-methyl-5-(2-methylpyrimidin-5-yl)-1H-pyrazolo[3,4-c]pyridin-1-yl)acetyl)-N-(6-bromo-3-methylpyridin-2-yl)-2-azabicyclo[3.1.0]hexane-3-carboxamide], the IC50 was < 1000 nM. In the case of `CC(=O)c1nn(CC(=O)N2[C@H](C(=O)Nc3nc(Br)ccc3C)C[C@@]3(Cc4nc(C)no4)C[C@@H]23)c2c(C)cc(-c3cnc(C)nc3)cc12` [Compound 372, (1R,3S,5R)-2-(2-(3-acetyl-7-methyl-5-(2-methylpyrimidin-5-yl)-1H-indazol-1-yl)acetyl)-N-(6-bromo-3-methylpyridin-2-yl)-5-((3-methyl-1,2,4-oxadiazol-5-yl)methyl)-2-azabicyclo[3.1.0]hexane-3-carboxamide], the IC50 is reported as < 1000 nM. In the case of `CC(=O)c1nn(CC(=O)N2[C@H](C(=O)Nc3nc(Br)ccc3C)C[C@@]3(C)C[C@@H]23)c2cc(C)c(-c3cnc(C)nc3)cc12` [Compound 373, (1R,3S,5R)-2-(2-(3-acetyl-6-methyl-5-(2-methylpyrimidin-5-yl)-1H-indazol-1-yl)acetyl)-N-(6-bromo-3-methylpyridin-2-yl)-5-methyl-2-azabicyclo[3.1.0]hexane-3-carboxamide], the IC50 is reported as < 1000 nM. With `CC(=O)c1nn(CC(=O)N2[C@H](C(=O)Nc3nc(Br)ccc3C)C[C@@]3(CCN(C)C)C[C@@H]23)c2c(CF)cc(-c3cnc(C)nc3)cc12` [Compound 377, (1R,3S,5R)-2-(2-(3-acetyl-7-(fluoromethyl)-5-(2-methylpyrimidin-5-yl)-1H-indazol-1-yl)acetyl)-N-(6-bromo-3-methylpyridin-2-yl)-5-(2-(dimethylamino)ethyl)-2-azabicyclo[3.1.0]hexane-3-carboxamide] the IC50 was < 1000 nM. In the case of `CC(=O)c1nn(CC(=O)N2[C@H](C(=O)Nc3nc(Br)ccc3C)C[C@@]3(CCCCN(C)C)C[C@@H]23)c2c(CF)cc(-c3cnc(C)nc3)cc12` [Compound 378, (1R,3S,5R)-2-(2-(3-acetyl-7-(fluoromethyl)-5-(2-methylpyrimidin-5-yl)-1H-indazol-1-yl)acetyl)-N-(6-bromo-3-methylpyridin-2-yl)-5-(4-(dimethylamino)butyl)-2-azabicyclo[3.1.0]hexane-3-carboxamide], the IC50 is reported as < 1000 nM. With `CC(=O)c1nn(CC(=O)N2[C@H](C(=O)Nc3nc(C(F)(F)F)ccc3C)C[C@@]3(CCCN(C)C)C[C@@H]23)c2c(CF)cc(-c3cnc(C)nc3)cc12` [Compound 380, (1R,3S,5R)-2-(2-(3-acetyl-7-(fluoromethyl)-5-(2-methylpyrimidin-5-yl)-1H-indazol-1-yl)acetyl)-5-(3-(dimethylamino)propyl)-N-(3-methyl-6-(trifluoromethyl)pyridin-2-yl)-2-azabicyclo[3.1.0]hexane-3-carboxamide] the IC50 was < 1000 nM. With `CC(=O)c1nn(CC(=O)N2[C@H](C(=O)Nc3nc(Br)ccc3C)C[C@@]3(COC(F)F)C[C@@H]23)c2cnc(-c3cnc(C)nc3)cc12` [Compound 384, (1R,3S,5S)-2-(2-(3-Acetyl-5-(2-methylpyrimidin-5-yl)-1H-pyrazolo[3,4-c]pyridin-1-yl)acetyl)-N-(6-bromo-3-methylpyridin-2-yl)-5-((difluoromethoxy)methyl)-2-azabicyclo[3.1.0]hexane-3-carboxamide] the IC50 was < 1000 nM. `CC(=O)c1nn(CC(=O)N2[C@H](C(=O)Nc3nc(Br)ccc3Cl)C[C@@]3(C)C[C@@H]23)c2ccc(-c3cnc(C)nc3)cc12` [Compound 386, (1R,3S,5R)-2-(2-(3-acetyl-5-(2-methylpyrimidin-5-yl)-1H-indazol-1-yl)acetyl)-N-(6-bromo-3-chloropyridin-2-yl)-5-methyl-2-azabicyclo[3.1.0]hexane-3-carboxamide] was tested, and the IC50 was < 1000 nM. In the case of `CC(=O)c1nn(CC(=O)N2C[C@H]3C[C@H]3[C@H]2C(=O)Nc2nc(Br)ccc2C)c2c(C(C)C)nc(-c3cnc(C)nc3)cc12` [Compound 388, (1R,25,5S)-3-(2-(3-acetyl-7-isopropyl-5-(2-methylpyrimidin-5-yl)-1H-pyrazolo[3,4-c]pyridin-1-yl)acetyl)-N-(6-bromo-3-methylpyridin-2-yl)-3-azabicyclo[3.1.0]hexane-2-carboxamide], the IC50 is reported as < 1000 nM. `Cc1ncc(-c2ccc3c(c2)c(C(=O)c2ncc[nH]2)nn3CC(=O)N2[C@H](C(=O)Nc3nc(Br)ccc3C)C[C@@]3(C)C[C@@H]23)cn1` [Compound 389, (1R,3S,5R)-2-(2-(3-(1H-Imidazole-2-carbonyl)-5-(2-methylpyrimidin-5-yl)-1H-indazol-1-yl)acetyl)-N-(6-bromo-3-methylpyridin-2-yl)-5-methyl-2-azabicyclo[3.1.0]hexane-3-carboxamide] was tested, and the IC50 was > 10000 nM.

Same assay, conditions: Table 8; Factor D 80 nM, substrate Z-L-Lys-SBz; read-out: IC50
With `COC(=O)CCCCCCCCCCCCCCCCC(=O)N[C@@H](CCC(=O)NCCOCCOCC(=O)NCCOCCOCC(=O)NC[C@@]12C[C@@H](C(=O)Nc3nc(Br)ccc3C)N(C(=O)Cn3nc(C(C)=O)c4cc(-c5cnc(C)nc5)cc(C)c43)[C@@H]1C2)C(=O)OC` [Compound 391, Methyl (S)-1-((1R,3S,5R)-2-(2-(3-acetyl-7-methyl-5-(2-methylpyrimidin-5-yl)-1H-indazol-1-yl)acetyl)-3-((6-bromo-3-methylpyridin-2-yl)carbamoyl)-2-azabicyclo[3.1.0]hexan-5-yl)-24-(methoxycarbonyl)-3,12,21,26-tetraoxo-5,8,14,17-tetraoxa-2,11,20,25-tetraazatritetracontan-43-oate] the IC50 was < 1000 nM.
